Measured values published in US9505728B2, “Triazolone compounds and uses thereof” (INCEPTION 2, INC., priority 2012, dated 2016).

What follows are compounds tested against T1, Human PPARα (Homo sapiens, UniProt Q07869) (assay: Human PPARα Reporter Assay (luciferase)). Settings: human PPARα reporter cells, overnight incubation, antagonism; read-out: Luciferase IC50.
T1 construct: host or cells: proprietary non-human mammalian cells
T1 sequence (Q07869 1-468): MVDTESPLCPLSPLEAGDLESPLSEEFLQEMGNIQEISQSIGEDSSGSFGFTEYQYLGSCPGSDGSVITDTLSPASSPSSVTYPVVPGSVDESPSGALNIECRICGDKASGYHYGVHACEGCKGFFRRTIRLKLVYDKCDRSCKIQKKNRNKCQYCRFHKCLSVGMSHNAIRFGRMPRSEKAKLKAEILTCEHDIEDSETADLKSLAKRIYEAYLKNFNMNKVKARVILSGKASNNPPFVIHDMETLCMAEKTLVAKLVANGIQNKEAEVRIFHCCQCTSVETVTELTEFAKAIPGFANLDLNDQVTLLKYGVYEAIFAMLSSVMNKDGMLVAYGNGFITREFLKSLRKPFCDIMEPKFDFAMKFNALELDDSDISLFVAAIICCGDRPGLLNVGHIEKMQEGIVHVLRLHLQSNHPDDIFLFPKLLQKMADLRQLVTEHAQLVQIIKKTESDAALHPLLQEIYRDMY
Format: cell-based
How it was run: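 Non-human mammalian cells constitutively expressing human PPARα with a PPARα-responsive luciferase reporter were dosed with compounds right after plating. After overnight incubation, media removed and detection reagent added; luminescence taken as proportional to PPARα activation, agonist or antagonist mode.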

Row | Compound | IC50
1 | CCn1c(CCCc2ccc(-c3cccc(NS(=O)(=O)c4ccc(Cl)cc4)n3)cc2)nn(Cc2ccc(C(C)(C)C)cc2)c1=O [Example 83, 1-{[4-(tert-Butyl)phenyl]methyl}-3-{3-[4-(6-{[(4-chlorophenyl)sulfonyl]amino}(2-pyridyl))phenyl]propyl}-4-ethyl-1,2,4-triazolin-5-one] | 0.06 µM
2 | CCn1c(CCCc2ccc(-c3ccc(C)c(C(=O)O)n3)cc2)nn(Cc2ccc(C(C)(C)C)cc2)c1=O [Example 165, 6-(4-(3-(1-(4-(tert-Butyl)benzyl)-4-ethyl-5-oxo-4,5-dihydro-1H-1,2,4-triazol-3-yl)propyl)phenyl)-3-methylpicolinic acid] | 0.202 µM
3 | CCn1c(CCCc2ccc(-c3cnc(C4(F)COC4)nc3)cc2)nn(Cc2ccc(C(C)(C)C)cc2)c1=O [Example 170, 1-(4-(tert-Butyl)benzyl)-4-ethyl-3-(3-(4-(2-(3-fluorooxetan-3-yl)pyrimidin-5-yl)phenyl)propyl)-1H-1,2,4-triazol-5(4H)-one] | 0.041 µM
4 | CCn1c(CCCc2ccc(-c3ccc(OC)c(NS(=O)(=O)c4ccc(C(F)(F)F)cc4)n3)cc2)nn(Cc2ccc(C(C)(C)C)cc2)c1=O [Example 88, 1-{[4-(tert-Butyl)phenyl]methyl}-4-ethyl-3-(3-{4-[5-methoxy-6-({[4-(trifluoromethyl)phenyl]sulfonyl}amino)(2-pyridyl)]phenyl}propyl)-1,2,4-triazolin-5-one] | 0.024 µM
5 | CCn1c(CCCc2ccc(-c3ccc(NS(=O)(=O)c4ccc(Cl)cc4)cn3)cc2)nn(Cc2ccc(C(C)(C)C)cc2)c1=O [Example 90, 1-{[4-(tert-Butyl)phenyl]methyl}-3-{3-[4-(5-{[(4-chlorophenyl)sulfonyl]amino}(2-pyridyl))phenyl]propyl}-4-ethyl-1,2,4-triazolin-5-one] | 0.487 µM
6 | CCn1c(CCCc2ccc(-c3cncc(N)c3)cc2)nn(Cc2ccc(C(C)(C)C)cc2)c1=O [Example 109, 3-(3-(4-(5-Aminopyridin-3-yl)phenyl)propyl)-1-(4-(tert-butyl)benzyl)-4-ethyl-1H-1,2,4-triazol-5(4H)-one] | 0.59 µM
7 | CCn1c(CCCc2ccc(-c3ccc(OC)c(NS(=O)(=O)c4ccccc4)n3)cc2)nn(Cc2ccc(C(C)(C)C)cc2)c1=O [Example 59, 1-{[4-(tert-Butyl)phenyl]methyl}-4-ethyl-3-[3-(4-{5-methoxy-6-[(phenylsulfonyl)amino](2-pyridyl)}phenyl)propyl]-1,2,4-triazolin-5-one] | 0.003 µM
8 | CCOc1ccc(-c2ccc(CCCc3nn(Cc4ccc(C(C)(C)C)cc4)c(=O)n3CC)cc2)nc1NS(=O)(=O)c1ccccc1 [Example 62, 1-{[4-(tert-Butyl)phenyl]methyl}-3-[3-(4-{5-ethoxy-6-[(phenylsulfonyl)amino](2-pyridyl)}phenyl)propyl]-4-ethyl-1,2,4-triazolin-5-one] | 0.005 µM
9 | CCn1c(CCCc2ccc(-c3ccc(N)cn3)cc2)nn(Cc2ccc(C(C)(C)C)cc2)c1=O [Example 5, 3-(3-(4-(5-Aminopyridin-2-yl)phenyl)propyl)-1-(4-(tert-butyl)benzyl)-4-ethyl-1H-1,2,4-triazol-5(4H)-one] | 0.043 µM
10 | CCn1c(CCCc2ccc(-c3cncc(NS(=O)(=O)c4ccccc4)c3)cc2)nn(Cc2ccc(C(C)(C)C)cc2)c1=O [Example 117, N-(5-(4-(3-(1-(4-(tert-Butyl)benzyl)-4-ethyl-5-oxo-4,5-dihydro-1H-1,2,4-triazol-3-yl)propyl)phenyl)pyridin-3-yl)benzenesulfonamide] | 0.799 µM
11 | CCn1c(CCCc2ccc(-c3ccc(OC)c(C(=O)O)n3)cc2)nn(Cc2ccc(C(C)(C)C)cc2)c1=O [Example 139, 6-(4-(3-(1-(4-(tert-Butyl)benzyl)-4-ethyl-5-oxo-4,5-dihydro-1H-1,2,4-triazol-3-yl)propyl)phenyl)-3-methoxypicolinic acid] | 0.089 µM
12 | CCn1c(CCC(F)(F)c2ccc(-c3ccc(C4(O)COC4)cc3)cc2)nn(Cc2ccc(C(C)(C)C)cc2)c1=O [Example 196, 1-(4-(tert-Butyl)benzyl)-3-(3,3-difluoro-3-(4′-(3-hydroxyoxetan-3-yl)-[1,1′-biphenyl]-4-yl)propyl)-4-ethyl-1H-1,2,4-triazol-5(4H)-one] | 0.11 µM
13 | CCn1c(CCCc2ccc(-c3cnc(NS(=O)(=O)Cc4ccccc4)cn3)cc2)nn(Cc2ccc(C(C)(C)C)cc2)c1=O [Example 119, N-(5-(4-(3-(1-(4-(tert-Butyl)benzyl)-4-ethyl-5-oxo-4,5-dihydro-1H-1,2,4-triazol-3-yl)propyl)phenyl)pyrazin-2-yl)-1-phenylmethanesulfonamide] | 0.941 µM

Results, then the compound that gave them:

Row | IC50 | Compound
14 | 1.96 µM | CC(C)n1c(CCCc2ccc(-c3cccc(CC(=O)O)c3)cc2)nn(Cc2ccc(C(C)(C)C)cc2)c1=O [Example 31, 2-(4′-(3-(1-(4-(tert-Butyl)benzyl)-4-isopropyl-5-oxo-4,5-dihydro-1H-1,2,4-triazol-3-yl)propyl)-[1,1′-biphenyl]-3-yl)acetic acid]
15 | 0.015 µM | CCOc1ccc(-c2ccc(CCCc3nn(Cc4ccc(C(C)(C)C)cc4)c(=O)n3C)cc2)cc1CC(=O)O [Example 95, 2-(4′-(3-(1-(4-(tert-Butyl)benzyl)-4-methyl-5-oxo-4,5-dihydro-1H-1,2,4-triazol-3-yl)propyl)-4-ethoxy-[1,1′-biphenyl]-3-yl)acetic acid]
16 | 0.306 µM | CCn1c(CCCc2ccc(-c3cc(CC(=O)O)ccn3)cc2)nn(Cc2ccc(C(C)(C)C)cc2)c1=O [Example 45, 2-(2-{4-[3-(1-{[4-(tert-Butyl)phenyl]methyl}-4-ethyl-5-oxo-1,2,4-triazolin-3-yl)propyl]phenyl}-4-pyridyl)acetic acid]
17 | 0.021 µM | CCn1c(CCCc2ccc(-c3cc(OC)cc(C(=O)O)c3)cc2)nn(Cc2ccc(C(C)(C)C)cc2)c1=O [Example 193, 3-{4-[3-(1-{[4-(tert-Butyl)phenyl]methyl}-4-ethyl-5-oxo(1,2,4-triazolin-3-yl))propyl]phenyl}-5-methoxybenzoic acid]
18 | 0.144 µM | CCn1c(CCCc2ccc(-c3ccc(C4(O)COC4)cc3)cc2)nn(Cc2ccc(C(C)(C)C)cc2)c1=O [Example 174, 1-(4-(tert-Butyl)benzyl)-4-ethyl-3-(3-(4′-(3-hydroxyoxetan-3-yl)-[1,1′-biphenyl]-4-yl)propyl)-1H-1,2,4-triazol-5(4H)-one]
19 | 0.251 µM | CCn1c(CCCc2ccc(-c3ccc4occ(C(=O)O)c4c3)cc2)nn(Cc2ccc(C(C)(C)C)cc2)c1=O [Example 89, 5-(4-(3-(1-(4-(tert-Butyl)benzyl)-4-ethyl-5-oxo-4,5-dihydro-1H-1,2,4-triazol-3-yl)propyl)phenyl)benzofuran-3-carboxylic acid]
20 | 0.685 µM | CCn1c(CCCc2ccc(-c3cccc(C(Cc4ccccc4)C(=O)O)c3)cc2)nn(Cc2ccc(C(C)(C)C)cc2)c1=O (stereo not drawn) [Example 47, 2-(3-{4-[3-(1-{[4-(tert-Butyl)phenyl]methyl}-4-ethyl-5-oxo(1,2,4-triazolin-3-yl))propyl]phenyl}phenyl)-3-phenylpropanoic acid]
21 | 4.11 µM | CCn1c(CCCc2ccc(-c3cccc(CC(=O)O)c3)cc2)nn(Cc2ccc(C3CCCCC3)cc2)c1=O [Example 26, 2-(4′-(3-(1-(4-Cyclohexylbenzyl)-4-ethyl-5-oxo-4,5-dihydro-1H-1,2,4-triazol-3-yl)propyl)-[1,1′-biphenyl]-3-yl)acetic acid]
22 | 0.272 µM | CCn1c(CCCc2ccc(-c3ccc(OC)c([C@H](C)C(=O)O)c3)cc2)nn(Cc2ccc(C(C)(C)C)cc2)c1=O [Example 142, (S)-2-(4′-(3-(1-(4-(tert-Butyl)benzyl)-4-ethyl-5-oxo-4,5-dihydro-1H-1,2,4-triazol-3-yl)propyl)-4-methoxy-[1,1′-biphenyl]-3-yl)propanoic acid]
23 | 2.76 µM | CCn1c(CCCc2ccc(-c3cccc(CCC(=O)O)c3)cc2)nn(Cc2ccc(C(C)(C)C)cc2)c1=O [Example 36, 3-(4′-(3-(1-(4-(tert-Butyl)benzyl)-4-ethyl-5-oxo-4,5-dihydro-1H-1,2,4-triazol-3-yl)propyl)-[1,1′-biphenyl]-3-yl)propanoic acid]
24 | 0.02 µM | CCSc1ccc(-c2ccc(CCCc3nn(Cc4ccc(C(C)(C)C)cc4)c(=O)n3CC)cc2)cc1CC(=O)O [Example 61, 2-(5-{4-[3-(1-{[4-(tert-Butyl)phenyl]methyl}-4-ethyl-5-oxo(1,2,4-triazolin-3-yl))propyl]phenyl}-2-ethylthiophenyl)acetic acid]
25 | 0.281 µM | CCn1c(CCCc2ccc(-c3ccc(OC)c(C4(C(=O)O)CC4)c3)cc2)nn(Cc2ccc(C(C)(C)C)cc2)c1=O [Example 128, 1-(4′-(3-(1-(4-(tert-Butyl)benzyl)-4-ethyl-5-oxo-4,5-dihydro-1H-1,2,4-triazol-3-yl)propyl)-4-methoxy-[1,1′-biphenyl]-3-yl)cyclopropanecarboxylic acid]
26 | 1.45 µM | CCn1c(CCCc2ccc(-c3cccc(/C=C/C(=O)O)c3)cc2)nn(Cc2ccc(C(C)(C)C)cc2)c1=O [Example 34, 3-(4′-(3-(1-(4-(tert-Butyl)benzyl)-4-ethyl-5-oxo-4,5-dihydro-1H-1,2,4-triazol-3-yl)propyl)-[1,1′-biphenyl]-3-yl)acrylic acid]
27 | 0.652 µM | CCn1c(CCCc2ccc(-c3cccc(C(C)C(=O)O)c3)cc2)nn(Cc2ccc(C(C)(C)C)cc2)c1=O (stereo not drawn) [Example 44, 2-(3-{4-[3-(1-{[4-(tert-Butyl)phenyl]methyl}-4-ethyl-5-oxo-1,2,4-triazolin-3-yl)propyl]phenyl}phenyl)propanoic acid]
